Measured values published in the NIST ThermoML archive (doi:10.1021/acs.jced.6b00526).
± gives the expanded uncertainty stated by the source.

How the values were obtained:
[1] = refractive index (Na D-line) (dimensionless); settings: 100 kPa, Standard Abbe refractometry
[2] = 100 kPa; for viscosity: Falling or rolling sphere viscometry; for mass density: Vibrating tube method
[3] = xn = mol fraction of the nth substance listed; settings: 100 kPa, Liquid, x1 = 1; for mass density: Vibrating tube method; for viscosity: Falling or rolling sphere viscometry
[4] = refractive index (Na D-line) (dimensionless); xn = mol fraction of the nth substance listed; settings: 100 kPa, Liquid, Standard Abbe refractometry, x1 = 1

OCCO [1,2-ethanediol]
Liquid
Settings | mass density, [2] [kg/m3] | refractive index, [1] | viscosity, [2] [mPa·s]
288.15 K | – | 1.432 ± 0.029 | –
293.15 K | 1113.3 ± 4.5 | 1.4306 ± 0.029 | 21.13 ± 3.4
298.15 K | – | 1.4294 ± 0.029 | 17.24 ± 2.8
303.15 K | 1106.8 ± 4.4 | 1.4282 ± 0.029 | 14.23 ± 2.3
308.15 K | – | 1.4269 ± 0.029 | –
313.15 K | 1099.1 ± 4.4 | 1.4257 ± 0.029 | –
318.15 K | – | 1.4244 ± 0.029 | –

OCCCCO [1,4-butanediol]
Metastable liquid
Settings | mass density, [2] [kg/m3] | refractive index, [1] | viscosity, [2] [mPa·s]
288.15 K | 1018.6 ± 4.1 | 1.447 ± 0.029 | –
293.15 K | 1016.3 ± 4.1 | 1.4455 ± 0.029 | 90.7 ± 15
298.15 K | 1012.9 ± 4.1 | 1.4441 ± 0.029 | 69.89 ± 11
303.15 K | 1009.9 ± 4 | 1.4426 ± 0.029 | 55.24 ± 8.8
308.15 K | 1006.9 ± 4 | 1.4412 ± 0.029 | –
313.15 K | 1003.2 ± 4 | 1.4398 ± 0.029 | –
318.15 K | 1000.8 ± 4 | 1.4384 ± 0.029 | –

OCCCCCO [1,5-pentanediol]
Liquid
Settings | mass density, [2] [kg/m3] | refractive index, [1] | viscosity, [2] [mPa·s]
288.15 K | 992.2 ± 4 | 1.4503 ± 0.029 | –
293.15 K | 989.2 ± 4 | 1.449 ± 0.029 | 118.7 ± 19
298.15 K | 986.2 ± 4 | 1.4478 ± 0.029 | 86.79 ± 14
303.15 K | 983.2 ± 4 | 1.4466 ± 0.029 | 68.3 ± 11
308.15 K | 980.3 ± 4 | 1.4454 ± 0.029 | –
313.15 K | 977.4 ± 4 | 1.4441 ± 0.029 | –
318.15 K | 974.8 ± 4 | 1.443 ± 0.029 | –

OCCCO [propan-1,3-diol]
Liquid
Settings | mass density, [2] [kg/m3] | refractive index, [1] | viscosity, [2] [mPa·s]
288.15 K | 1056.2 ± 4.3 | 1.4407 ± 0.029 | –
293.15 K | 1053.2 ± 4.3 | 1.4393 ± 0.029 | 51.55 ± 8.3
298.15 K | 1049.9 ± 4.3 | 1.438 ± 0.029 | 40.8 ± 6.5
303.15 K | 1046.7 ± 4.3 | 1.4367 ± 0.029 | 32.74 ± 5.3
308.15 K | 1043.5 ± 4.3 | 1.4353 ± 0.029 | –
313.15 K | 1040.4 ± 4.2 | 1.434 ± 0.029 | –
318.15 K | 1037.9 ± 4.2 | 1.4327 ± 0.029 | –

O [water]
Liquid
Settings | mass density, [2] [kg/m3] | refractive index, [1] | viscosity, [2] [mPa·s]
288.15 K | 999.2 ± 4 | 1.3338 ± 0.027 | –
293.15 K | 998.3 ± 4 | 1.3331 ± 0.027 | 0.949 ± 0.15
298.15 K | – | 1.3325 ± 0.027 | 0.843 ± 0.14
303.15 K | – | 1.3318 ± 0.027 | 0.755 ± 0.12
308.15 K | – | 1.3312 ± 0.027 | –
313.15 K | – | 1.3305 ± 0.027 | –
318.15 K | 990.8 ± 4 | 1.3299 ± 0.027 | –

O [water] + OCCCCCO
Settings | mass density, [3] [kg/m3] | refractive index, [4] | viscosity, [3] [mPa·s]
288.15 K | 999.2 ± 4 | 1.3338 ± 0.027 | –
293.15 K | 998.3 ± 4 | 1.3331 ± 0.027 | 0.949 ± 0.15
298.15 K | – | 1.3325 ± 0.027 | 0.843 ± 0.14
303.15 K | – | 1.3318 ± 0.027 | 0.755 ± 0.12
308.15 K | – | 1.3312 ± 0.027 | –
313.15 K | – | 1.3305 ± 0.027 | –
318.15 K | 990.8 ± 4 | 1.3299 ± 0.027 | –

O [water] + OCCCCO
Settings | mass density, [3] [kg/m3] | refractive index, [4] | viscosity, [3] [mPa·s]
288.15 K | 999.2 ± 4 | 1.3338 ± 0.027 | –
293.15 K | 998.3 ± 4 | 1.3331 ± 0.027 | 0.949 ± 0.15
298.15 K | – | 1.3325 ± 0.027 | 0.843 ± 0.14
303.15 K | – | 1.3318 ± 0.027 | 0.755 ± 0.12
308.15 K | – | 1.3312 ± 0.027 | –
313.15 K | – | 1.3305 ± 0.027 | –
318.15 K | 990.8 ± 4 | 1.3299 ± 0.027 | –

O [water] + OCCCO
Settings | mass density, [3] [kg/m3] | refractive index, [4] | viscosity, [3] [mPa·s]
288.15 K | 999.2 ± 4 | 1.3338 ± 0.027 | –
293.15 K | 998.3 ± 4 | 1.3331 ± 0.027 | 0.949 ± 0.15
298.15 K | – | 1.3325 ± 0.027 | 0.843 ± 0.14
303.15 K | – | 1.3318 ± 0.027 | 0.755 ± 0.12
308.15 K | – | 1.3312 ± 0.027 | –
313.15 K | – | 1.3305 ± 0.027 | –
318.15 K | 990.8 ± 4 | 1.3299 ± 0.027 | –

O [water] + OCCO
Settings | mass density, [3] [kg/m3] | refractive index, [4] | viscosity, [3] [mPa·s]
288.15 K | 999.2 ± 4 | 1.3338 ± 0.027 | –
293.15 K | 998.3 ± 4 | 1.3331 ± 0.027 | 0.949 ± 0.15
298.15 K | – | 1.3325 ± 0.027 | 0.843 ± 0.14
303.15 K | – | 1.3318 ± 0.027 | 0.755 ± 0.12
308.15 K | – | 1.3312 ± 0.027 | –
313.15 K | – | 1.3305 ± 0.027 | –
318.15 K | 990.8 ± 4 | 1.3299 ± 0.027 | –
